Measured values as given in US20020026053A1, “Novel 3-(substituted) -2- indolinones compounds and use thereof as inhibitors of protein kinase activity” (priority 1997, published 2002).

Molecular target: T1, Met receptor (EGFR/Met chimeric cells, EMR) (Homo sapiens, UniProt P08581)
T1 construct: expressed in transfected cells; the other entry of the earlier key: EGFR (P00533, Epidermal growth factor receptor)
Assay: Met Autophosphorylation Assay
Type: biochemical
Conditions: protocol P.130
Procedure, shortened: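 Met phosphorylation was measured by capture ELISA. Lysates (90 μg/100 μl, HNTG plus 1 mM PMSF) from transiently transfected EGFR/Met chimera (EMR) cells were bound for 60 min at room temperature to wells holding rabbit anti-Met (C-28) on goat anti-rabbit coat. Phosphotyrosine was the read-out.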

T1 sequence (P08581 with tags, fused parts or gaps): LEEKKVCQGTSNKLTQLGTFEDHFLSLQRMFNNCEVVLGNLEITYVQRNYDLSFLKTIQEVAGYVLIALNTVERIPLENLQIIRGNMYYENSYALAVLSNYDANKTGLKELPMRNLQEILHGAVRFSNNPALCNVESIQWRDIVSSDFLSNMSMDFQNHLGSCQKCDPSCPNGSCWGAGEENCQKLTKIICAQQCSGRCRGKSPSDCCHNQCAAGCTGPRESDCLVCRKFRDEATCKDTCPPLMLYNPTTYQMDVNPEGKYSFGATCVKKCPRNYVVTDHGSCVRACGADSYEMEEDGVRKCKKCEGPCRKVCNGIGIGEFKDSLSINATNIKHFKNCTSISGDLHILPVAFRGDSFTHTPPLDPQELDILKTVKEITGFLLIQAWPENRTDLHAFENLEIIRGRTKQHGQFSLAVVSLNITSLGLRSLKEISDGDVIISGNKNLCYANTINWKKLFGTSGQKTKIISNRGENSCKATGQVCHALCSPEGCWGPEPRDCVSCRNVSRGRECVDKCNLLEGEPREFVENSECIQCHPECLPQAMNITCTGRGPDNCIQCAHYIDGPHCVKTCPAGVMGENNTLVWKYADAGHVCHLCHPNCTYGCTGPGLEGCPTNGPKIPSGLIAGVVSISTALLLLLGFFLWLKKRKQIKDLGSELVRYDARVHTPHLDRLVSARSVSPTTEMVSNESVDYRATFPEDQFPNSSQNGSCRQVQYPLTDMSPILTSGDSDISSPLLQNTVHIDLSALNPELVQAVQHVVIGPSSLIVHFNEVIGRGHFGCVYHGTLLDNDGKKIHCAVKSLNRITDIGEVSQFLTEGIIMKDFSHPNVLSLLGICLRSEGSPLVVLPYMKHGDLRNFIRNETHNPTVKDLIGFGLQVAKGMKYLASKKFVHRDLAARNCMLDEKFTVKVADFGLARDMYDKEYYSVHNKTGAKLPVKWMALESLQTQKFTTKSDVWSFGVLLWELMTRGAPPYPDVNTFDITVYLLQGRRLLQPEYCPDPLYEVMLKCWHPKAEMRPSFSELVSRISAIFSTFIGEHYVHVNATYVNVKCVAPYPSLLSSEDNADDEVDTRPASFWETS

Structure (SMILES)	Met Kinase % Inhibition (P.130) [%]
Cc1c(Br)cc(Br)c2c1C(=Cc1cccc(Oc3ccc(Cl)c(Cl)c3)c1)C(=O)N2 [10738/H03]	29.5
COc1ccc(C=C2C(=O)Nc3c(Br)cc(Br)c(C)c32)cc1O [10738/H04]	72.9
Cc1c(Br)cc(Br)c2c1C(=Cc1cc(O)ccc1[N+](=O)[O-])C(=O)N2 [10738/H05]	73.6
Cc1c(Br)cc(Br)c2c1C(=Cc1cccc(O)c1O)C(=O)N2 [10738/H06]	93.8
